# Columns and labels:
# [1] = system: microtubules in keratinocytes; test: EB3-GFP microtubule growth dynamics in keratinocytes; format: in vivo, zebrafish
# Description: (§1) Fish were anesthetized in 2-phenoxyethanol (1:1000) in Ringer's solution prior to imaging and mounted in 1.2% agarose. EB3-GFP and Tau-Bfp2 were imaged with a scan speed kept at the maximum level in single slice mode with […] for a total of 60s to capture microtubule dynamics. h2a:H2A-GFP time-lapse recordings were produced (Zeiss LSM880 AiryScan confocal microscope) with 1 μm sections recorded every 10 min for 12 hr using 800×800 pixels. All other live fish were imaged using 1024×1024 pixels.
# EB3-GFP tracking was done in Fiji using the MTrackJ plugin to trace microtubules over time and create Kymographs, measure the velocity, track length, and comet duration. Tracking was also performed using the Spots and Surface tools in Imaris. Settings were initially automatically detected to fit the fluorescence and subsequently modified manually for improved fit. Settings were maintained between treatment groups.
# To validate this, microtubule growth dynamics were characterized in basal keratinocytes expressing the microtubule plus-end binding protein, EB3-GFP (courtesy of R. Koester) (Distel et al., 2010, The Journal of cell biology 191: 875-890). […] However, a small proportion of keratinocytes also harbored uniformly labelled EB3-positive microtubules, consistent with previous observations in murine axons (Kleele et al., 2015, Proceedings of the National Academy of Sciences of the United States of America 112: 7501-7506). […] This behavior therefore contrasts the curved conformation of stable dfMTs.
# [2] = system: caudal fin keratinocytes (cell death); test: Keratinocyte cell death, 12 hr time-lapse imaging; format: in vivo, zebrafish
# Description: as §1
# (§2) Cell divisions and cell death were manually counted in 12 hr movie recordings. The caudal fin was divided into 6 quadrants and individual cells in each quadrant were manually followed over 12 hr at least 3 times sequentially to capture cell divisions and dying cell behaviors.
# [3] = system: caudal fin keratinocytes (mitosis); test: Keratinocyte mitosis, 12 hr time-lapse imaging of h2a:h2a-GFP fish; format: in vivo, zebrafish
# Description: as §1, §2
# To examine the effects of EMD534085 on mitosis, cell divisions in keratinocytes expressing nuclear h2a-h2a:GFP were quantified using 12 hr time-lapse imaging. […] The few divisions present were mostly restricted to the distal notochord region, with an average of 0.96±0.20/12 hr divisions at 3dpf and 1.16±0.44/12 hr at 6dpf in this region (shown in FIG. 6A).
# [4] = system: HyPer oxidation in keratinocytes; test: Compartmentalized HyPer oxidation (nucleus, plasma membrane) in keratinocytes; format: in vivo, zebrafish; details: paclitaxel, alone or with EMD534085; for nuclear HyPer oxidation: nucleus
# Description: HyPer fluorescence was measured in the oxidized (505 nm) and unoxidized (420 nm) channels by using the region of interest (ROI) function in ZEN Black (Zeiss) whereby ROIs were selected inside highly magnified mitochondria (HyPer-mito), cytoplasm (HyPer-cyto) or the plasma membrane (HyPer-CAAX). The data was exported, and ratios determined in Excel. H2O2 measurements in zebrafish transiently injected with tp63:Hyper were manually performed by placing spot objects in Imaris 9.5.1 onto individual cells such that the spots extended to the lateral edges. Fluorescence intensities were measured inside the spots and 505 nm/420 nm ratios were subsequently calculated.
# These findings supported a role for Eg5 in nuclear X-ROS production as a result of microtubule fasciculation and increased mechanical tension.
# skin gene expression = test: Mouse skin RNAseq; format: in vivo; details: mice, 2 mg/kg paclitaxel i.p. x4
# Description: The RNAseq data set was published in Cirrincione et al. (2022, Data 7: 72). Following differential gene expression analysis (FDR<0.01) comparing paclitaxel-treated to vehicle control animals (n=4), identified genes were queried in gProfiler and grouped by their molecular function. Using normalized gene counts, Kif genes were analyzed for their expression and plotted over time. […] Kif11 was queried in STRING to identify associated networks and interacting proteins compared to the RNAseq data set and differentially expressed genes were graphed in Prism 9.
# Molecular mechanisms underlying paclitaxel-induced microtubule fasciculation were then investigated. […] Peripheral neuropathy was correlated with these times points using von Frey behavioral testing, which determined that peak neuropathy was present at day 7 (D7). This identified several biological categories during peak neuropathy with the largest clusters being implicated in extracellular matrix organization (e.g. “ECM”, “collagen-containing ECM”, “collagen trimer”) and cell cycle regulation (e.g. “outer kinetochore”, “kinesin complex”, condensed chromosome, centromeric region”, “mitotic spindle”, “microtubules”), consistent with our findings in zebrafish. Interactome analysis using STRING (Szklarczyk et al., 2021, Nucl. Acids Res 49: D605-D612) to predict protein association networks further identified major clusters involved in cell cycle regulation, which contained various kinesins, microtubule and nucleus regulators, as well as one cluster annotated as “disulfide bond”, consistent with a role for oxidative signal activation (Leonard et al., 2011, Current opinion in chemical biology 15: 88-102) (shown in FIG. 3D).
# [5] = 22 μM paclitaxel, alone or with EMD534085, 96 hr
Structure (SMILES),paclitaxel-dependent microtubule growth dynamics ([1]; EMD534085 with 22 μM paclitaxel),"cell death ([2]; EMD534085 alone, 96 hr) [dying cells/caudal fin]","mitotic divisions per animal ([3]; EMD534085 alone, 96 hr)",nuclear HyPer oxidation [4],plasma membrane HyPer oxidation [4],"keratinocytes with uniform EB3 labelling ([1]; 22 μM paclitaxel, 96 hr) [%]","comet duration ([1]; paclitaxel, 3 hr)","growth velocity and track length of microtubules ([1]; paclitaxel, 3 hr)","keratinocytes with uniform EB3 labelling ([1]; paclitaxel, 3 hr) [%]","keratinocytes with uniform EB3 labelling ([1]; paclitaxel, 48 hr) [%]","linearity of microtubules ([1]; paclitaxel, 48 hr and 96 hr)","expression of Cdk1, Aurka, Aurkb and Kif11 (skin gene expression)",expression of Cyba and Cybb (skin gene expression),"expression of checkpoint regulators Plk1, Cdc20, Ndc80, Bub1c, Dlgap5 (skin gene expression)","cell death ([2]; 100 nM paclitaxel, alone or with EMD534085, 96 hr) [dying cells/caudal fin]","cell death [2, 5] [dying cells/caudal fin]","mitotic divisions per animal ([3]; 100 nM paclitaxel, 96 hr)","mitotic divisions per animal [3, 5]"
CN(C)CCNC(=O)NC[C@H]1CC[C@@H]2[C@H](O1)c1cc(C(F)(F)F)ccc1N[C@H]2c1ccccc1 [EMD534085],did not alter the effects induced by paclitaxel alone,0.81±0.26,1.27±0.46 /12 hr,Nuclear HyPer oxidation was reduced upon co-administration of EMD534085,without effects on plasma membrane oxidation,,,,,,,,,,,,,
CC(=O)O[C@H]1C(=O)[C@@]2(C)[C@H]([C@H](OC(=O)c3ccccc3)[C@]3(O)C[C@H](OC(=O)[C@H](O)[C@@H](NC(=O)c4ccccc4)c4ccccc4)C(C)=C1C3(C)C)[C@]1(OC(C)=O)CO[C@@H]1C[C@@H]2O [paclitaxel],,,,increased oxidation within the nucleus,not at the plasma membrane,20.13,not affected,decreased the growth velocity and track length of microtubules,19.29,10.09,further enhanced the linearity,upregulated during peak neuropathy,upregulated at D23,co-upregulation from D7 onward,0.18±0.18,0.6±0.3,0.72±0.423,1.4±0.67

# Reference: patent US20260345584A1, “METHODS AND PHARMACEUTICAL COMPOSITIONS FOR TREATING CHEMOTHERAPY-INDUCED PERIPHERAL NEUROPATHY WITH EG5 INHIBITORS” (UNIVERSITY OF MIAMI, priority 2023, published 2026)
